Measurements taken from ChEMBL document CHEMBL1201862, “PubChem BioAssay data set” (2004).
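In this assay, cells in 96-well plates receive the compound at five concentrations for 48 hours. Endpoints are linearly interpolated between the surrounding concentrations. Abbreviation: GI50, concentration required for 50% inhibition of growth.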 Calls of active or inactive are those of the source. No stated cut-off is given here; in the data, active = GI50 up to about 1.1 µM and inactive = higher.

Key:
Assay in all cases: DTP human tumour cell line panel, 48 h
SK-MEL-2 = tested on: SK-MEL-2
NCI-H460 = tested on: NCI-H460
LOX IMVI = tested on: LOX IMVI
SNB-19 = tested on: SNB-19
HCT-116 = tested on: HCT-116
786-0 = tested on: 786-0
OVCAR-5 = tested on: OVCAR-5
UO-31 = tested on: UO-31
MOLT-4 = tested on: MOLT-4
SK-MEL-5 = tested on: SK-MEL-5
MCF7 = tested on: MCF7
Malme-3M = tested on: Malme-3M
OVCAR-4 = tested on: OVCAR-4
U-251 = tested on: U-251
SN12C = tested on: SN12C
HOP-62 = tested on: HOP-62
HT-29 = tested on: HT-29
NCI/ADR-RES = tested on: NCI/ADR-RES
SR = tested on: SR
SF-295 = tested on: SF-295

Row | SMILES | GI50 (SK-MEL-2) | GI50 (NCI-H460) | GI50 (LOX IMVI) | GI50 (SNB-19) | GI50 (HCT-116) | GI50 (786-0) | GI50 (OVCAR-5) | GI50 (UO-31) | GI50 (MOLT-4) | GI50 (SK-MEL-5) | GI50 (MCF7) | GI50 (Malme-3M) | GI50 (OVCAR-4) | GI50 (U-251) | GI50 (SN12C) | GI50 (HOP-62) | GI50 (HT-29) | GI50 (NCI/ADR-RES) | GI50 (SR) | GI50 (SF-295)
1 | CNC(=O)OCc1nc([S+](C)[O-])n(C)c1COC(=O)NC (stereo not given) | > 100 µM (inactive) | > 100 µM (inactive) | > 100 µM (inactive) | > 100 µM (inactive) | > 100 µM (inactive) | > 100 µM (inactive) | > 100 µM (inactive) | > 100 µM (inactive) | > 100 µM (inactive) | > 46.5 µM (inactive) | > 100 µM (inactive) | > 100 µM (inactive) | > 51.9 µM (inactive) | > 100 µM (inactive) | > 100 µM (inactive) | > 100 µM (inactive) | > 100 µM (inactive) | > 100 µM (inactive) | > 100 µM (inactive) | > 100 µM (inactive)
2 | C=C1[C@@H](C)[C@H]2[C@H](Cc3ccccc3)NC(=O)[C@]23OC(=O)/C=C/[C@H](O)CCC[C@@H](C)C/C=C/[C@H]3[C@@H]1O | 24.2 µM (inactive) | 2.62 µM (inactive) | 0.486 µM (active) | 5.66 µM (inactive) | 8.41 µM (inactive) | 7.62 µM (inactive) | 32.2 µM (inactive) | 0.258 µM (active) | 4.04 µM (inactive) | 9.53 µM (inactive) | 16.6 µM (inactive) | 16.3 µM (inactive) | 8.67 µM (inactive) | 2.08 µM (inactive) | 3.87 µM (inactive) | 0.605 µM (active) | 5.82 µM (inactive) | 20.3 µM (inactive) | > 100 µM (inactive) | 0.979 µM (active)
3 | NC(=O)c1c[se]c(C2OC(CO)C(O)C2O)n1 (stereo not given) | > 100 µM (inactive) | 17.5 µM (inactive) | 32.1 µM (inactive) | 6.35 µM (inactive) | 3.45 µM (inactive) | 2.44 µM (inactive) | 31 µM (inactive) | 6.5 µM (inactive) | 0.568 µM (active) | 10.3 µM (inactive) | 8.67 µM (inactive) | > 100 µM (inactive) | 3.99 µM (inactive) | 0.953 µM (active) | > 84.7 µM (inactive) | 10.2 µM (inactive) | 3.55 µM (inactive) | 9.16 µM (inactive) | 8.61 µM (inactive) | 2.39 µM (inactive)
4 | O=C(O)CN1CCNCCN(CC(=O)O)CCN(CC(=O)O)CCNCC1 | > 100 µM (inactive) | 68.7 µM (inactive) | 91.2 µM (inactive) | > 100 µM (inactive) | 35.2 µM (inactive) | 93.3 µM (inactive) | 97.7 µM (inactive) | > 100 µM (inactive) | 83.6 µM (inactive) | > 100 µM (inactive) | 69.8 µM (inactive) | > 100 µM (inactive) | > 100 µM (inactive) | > 100 µM (inactive) | > 100 µM (inactive) | > 100 µM (inactive) | 26.7 µM (inactive) | 23.3 µM (inactive) | 61.1 µM (inactive) | > 100 µM (inactive)
5 | Clc1ccc(C2=Cc3nc2c(-c2ccccc2)c2ccc([nH]2)c(-c2ccccc2)c2nc(c(-c4ccccc4)c4ccc([nH]4)c3-c3ccccc3)C=C2)cc1 | > 62.5 µM (inactive) | > 62.5 µM (inactive) | > 62.5 µM (inactive) | 46 µM (inactive) | > 62.5 µM (inactive) | > 62.5 µM (inactive) | > 62.5 µM (inactive) | > 62.5 µM (inactive) | > 62.5 µM (inactive) | > 62.5 µM (inactive) | > 62.5 µM (inactive) | > 62.5 µM (inactive) | > 62.5 µM (inactive) | > 62.5 µM (inactive) | > 62.5 µM (inactive) | > 62.5 µM (inactive) | > 62.5 µM (inactive) | > 62.5 µM (inactive) | > 62.5 µM (inactive) | > 62.5 µM (inactive)
6 | Oc1cc(-n2cccn2)c(O)cc1-n1cccn1 | > 88.5 µM (inactive) | > 100 µM (inactive) | 21 µM (inactive) | > 70.1 µM (inactive) | 26.2 µM (inactive) | 16.6 µM (inactive) | 53.1 µM (inactive) | 23.8 µM (inactive) | 9.55 µM (inactive) | 32.6 µM (inactive) | 19.1 µM (inactive) | 30.7 µM (inactive) | 19 µM (inactive) | 52.4 µM (inactive) | 19.3 µM (inactive) | > 63.1 µM (inactive) | 23 µM (inactive) | 29.4 µM (inactive) | 12.6 µM (inactive) | 37.8 µM (inactive)
7 | Cc1c(-c2cnccn2)ssc1=S [OLTIPRAZ] | 53.3 µM (inactive) | > 100 µM (inactive) | 63 µM (inactive) | 68.1 µM (inactive) | 54.3 µM (inactive) | 40.4 µM (inactive) | > 100 µM (inactive) | 40 µM (inactive) | > 96.4 µM (inactive) | 36.3 µM (inactive) | > 100 µM (inactive) | > 100 µM (inactive) | > 100 µM (inactive) | 46 µM (inactive) | > 100 µM (inactive) | 47 µM (inactive) | > 100 µM (inactive) | > 100 µM (inactive) | 68.9 µM (inactive) | 57.4 µM (inactive)
8 | COC(=O)/C=C/c1cnc2c(c1)oc(=O)n2C | > 100 µM (inactive) | > 100 µM (inactive) | > 100 µM (inactive) | > 100 µM (inactive) | > 100 µM (inactive) | > 100 µM (inactive) | > 100 µM (inactive) | > 100 µM (inactive) | > 100 µM (inactive) | > 100 µM (inactive) | > 100 µM (inactive) | > 100 µM (inactive) | > 100 µM (inactive) | > 100 µM (inactive) | > 100 µM (inactive) | > 100 µM (inactive) | > 100 µM (inactive) | > 100 µM (inactive) | > 100 µM (inactive) | > 100 µM (inactive)
9 | O=C(/C=C/NC(=O)OCc1ccccc1)OCc1ccccc1 | > 100 µM (inactive) | > 100 µM (inactive) | > 100 µM (inactive) | > 100 µM (inactive) | > 100 µM (inactive) | > 100 µM (inactive) | > 100 µM (inactive) | 32.5 µM (inactive) | > 100 µM (inactive) | > 100 µM (inactive) | > 100 µM (inactive) | > 100 µM (inactive) | > 100 µM (inactive) | > 100 µM (inactive) | > 100 µM (inactive) | > 100 µM (inactive) | > 100 µM (inactive) | > 100 µM (inactive) | > 100 µM (inactive) | > 100 µM (inactive)
10 | CCOC(=O)C1CC(C(=O)c2ccccc2)N2c3ccccc3-c3ccccc3C12 (stereo not given) | > 100 µM (inactive) | > 100 µM (inactive) | 65 µM (inactive) | > 100 µM (inactive) | 30.8 µM (inactive) | 40.1 µM (inactive) | > 100 µM (inactive) | 32.7 µM (inactive) | 52 µM (inactive) | 45.1 µM (inactive) | > 100 µM (inactive) | > 100 µM (inactive) | 26.4 µM (inactive) | 30.3 µM (inactive) | > 100 µM (inactive) | 97.1 µM (inactive) | 78.2 µM (inactive) | 43.2 µM (inactive) | 19.2 µM (inactive) | 82.2 µM (inactive)
11 | O=C(Cn1c(=O)oc2ccc(C(=O)c3ccccc3Cl)cc21)c1ccc([N+](=O)[O-])cc1 | 20.4 µM (inactive) | 18.4 µM (inactive) | 17 µM (inactive) | 40.5 µM (inactive) | 17.8 µM (inactive) | 19.6 µM (inactive) | 47.6 µM (inactive) | 23.6 µM (inactive) | 8.2 µM (inactive) | 16.3 µM (inactive) | 22.9 µM (inactive) | 25.5 µM (inactive) | 10.9 µM (inactive) | 29.9 µM (inactive) | 24.5 µM (inactive) | 25.1 µM (inactive) | 24.2 µM (inactive) | 22.6 µM (inactive) | 8.39 µM (inactive) | 21.8 µM (inactive)
12 | COc1ccc(CC2C(=O)NC(C)C(=O)N(C)C3C(=O)N(C)C(Cc4ccc(O)c(c4)Oc4ccc(cc4)C3O)C(=O)NC(C)C(=O)NC(C)C(=O)N2C)cc1 (stereo not given) | 0.0125 µM (active) | 0.0167 µM (active) | 0.00225 µM (active) | 0.00392 µM (active) | 0.00181 µM (active) | 0.015 µM (active) | 0.0303 µM (active) | 0.824 µM (active) | 0.0162 µM (active) | 0.00746 µM (active) | 0.0125 µM (active) | 0.0171 µM (active) | 0.00664 µM (active) | 0.00124 µM (active) | 0.018 µM (active) | 0.0284 µM (active) | 0.0178 µM (active) | 0.212 µM (active) | < 0.01 µM (active) | 0.0138 µM (active)
13 | O=[N+]([O-])c1ccc(Cl)c(CNc2ncnc3c2ncn3C2CCCCO2)c1 (stereo not given) | 28.5 µM (inactive) | 15.3 µM (inactive) | 56.4 µM (inactive) | 61.1 µM (inactive) | 43.2 µM (inactive) | 63.8 µM (inactive) | > 100 µM (inactive) | 22 µM (inactive) | 26.1 µM (inactive) | 21.7 µM (inactive) | 17.1 µM (inactive) | 64.9 µM (inactive) | 54.1 µM (inactive) | 32.5 µM (inactive) | 29.6 µM (inactive) | 48.4 µM (inactive) | 32.4 µM (inactive) | 25.1 µM (inactive) | 18.5 µM (inactive) | 52 µM (inactive)
14 | CCCCCCCCCCCCCCCCCCNc1ccn(C2OC(COP(=O)(O)OCC3OC(n4cc(C)c(=O)[nH]c4=O)CC3F)C(O)C2O)c(=O)n1 (stereo not given) | 9.14 µM (inactive) | 7.41 µM (inactive) | 7.59 µM (inactive) | 6.5 µM (inactive) | 10.2 µM (inactive) | 4.06 µM (inactive) | 2.56 µM (inactive) | 13.2 µM (inactive) | 3.13 µM (inactive) | 9.89 µM (inactive) | 9.46 µM (inactive) | 15 µM (inactive) | 9.02 µM (inactive) | 7.26 µM (inactive) | 7.87 µM (inactive) | 9.75 µM (inactive) | 7.69 µM (inactive) | 30.9 µM (inactive) | 1.44 µM (inactive) | 9.89 µM (inactive)
